Test results taken from patent publication US10702497B2, “Use of acyl-homoserine lactone derivatives as anti-thrombotic agents” (The University of Toledo, priority 2015, dated 2020).

Experiments:
Format in all cases: cell-based
human platelets [1] = assay: Thrombin-induced platelet activation, surface CD62P by flow cytometry; settings: 0.1 U/ml thrombin; for maximal inhibitory concentration (MIC) for thrombin: AHL pre-incubation 15 minutes at 37° C., CD62P; for inhibition of platelet activation by thrombin: several concentrations of AHL
human platelets [2] = assay: aggIgG-induced platelet activation, surface CD62P by flow cytometry; settings: aggIgG 50 or 500 μg/ml; several concentrations of AHL
human platelets [3] = assay: Platelet tyrosine phosphorylation (whole cell lysates, SDS-PAGE, anti-phosphotyrosine blot); settings: 20 μM 12C-AHL
Description: FIGS. 3A-3C: Effect of AHLs on tyrosine phosphorylation. Human platelets were incubated with PBS or 12C-AHL then left unstimulated or stimulated with […] aggIgG or 0.1 Um′ thrombin. Whole cell lysates were prepared as described in the examples and blotted for anti-phosphotyrosine or anti-GAPDH as loading control. (FIG. 3A.) To determine band intensities, total band intensity in the phosphorylation gel was divided by the GAPDH signal and plotted as total band intensity. (FIG. 3B.) Intensity of the indicated band was compared to GAPDH and plotted as band intensity. (FIG. 3C.)
Results from the above experiments indicate that AHLs are altering platelet signaling downstream of FcγRIIa (the receptor for aggIgG) and thrombin receptors (PAR1/4) to a lesser extent. To test this, human platelets were incubated with PBS or 20 μM 12C-AHL for 15 min at 37° C. followed by stimulation with thrombin or aggIgG. Whole cell lysates were separated by SDS-PAGE and blotted for phosphotyrosine.

human platelets [4] = assay: Platelet phagocytosis of IgG-coated beads through FcγRIIa (flow cytometry); settings: FITC-IgG-coated 1.5 μm beads, 30 minutes
Description: FIGS. 4A-4C: Effect of AHLs on platelet-mediated phagocytosis. Human platelets were incubated as indicated in the examples and analyzed by flow cytometry for FITC-IgG and PE-anti-IgG. (FIG. 4A.) Platelets were incubated with PBS, 10C- or 12C-AHLs or cytochalasin D (positive control to block phagocytosis), then exposed to FITC-IgG-coated […] beads for 30 minutes, labeled with anti-IgG conjugated to PE and analyzed by flow cytometry for FITC-IgG and PE-anti-IgG. (FIG. 4B.) Platelets were treated as in FIG. 4B and surface CD62P expression was measured by flow cytometry. * p<0.01, ** p<0.005. (FIG. 4C.)
Polystyrene beads, 1.5 μm in diameter, (Polysciences, Warrington, Pa.) were opsonized for 2 hours at 21° C. in a 10 mg/ml solution FITC labeled human IgG (SigmaAldrich, St. Louis, Mo.) or unlabeled human IgG for controls. After washing three times in PBS, beads were then resuspended in buffer and counted via hemacytometer. […]
Samples were prepared for flow cytometry and platelets with associated beads were gated on CD42b+/FITC+ and analyzed for internal/external by the absence/presence of PE expression on a FACSCalibur (B-D Biosciences). […] Data were analyzed using Cell Quest (B-D Biosciences) and FlowJo (Tree Star, Inc., Ashland, Oreg.) software.
Because AHLs inhibit signaling (especially aggIgG-induced tyrosine phosphorylation), whether other platelet activities are inhibited was evaluated. […]

CCCCCCCC(=O)CC(=O)N[C@H]1CCOC1=O [10C-AHL, N-(3-oxodecanoyl)-L-homoserine lactone]
maximal inhibitory concentration (MIC) for thrombin (human platelets [1]): 200 µM | inhibition of platelet activation by thrombin (human platelets [1]): inhibit platelet activation | inhibition of platelet activation by aggIgG (human platelets [2]): inhibit platelet activation

CCCCCCCCCC(=O)CC(=O)N[C@@H]1CCOC1=O [12C-AHL, N-oxo-dodecanoyl-L-homoserine lactone]
maximal inhibitory concentration (MIC) for thrombin (human platelets [1]): 200 µM | inhibition of platelet activation by thrombin (human platelets [1]): inhibit platelet activation | effect on tyrosine phosphorylation in unstimulated platelets (human platelets [3]; 15 min at 37° C., unstimulated): marginal effect | effect on tyrosine phosphorylation in platelets stimulated with thrombin (human platelets [3]; 0.1 U/ml thrombin): marginal effect | effect on phosphorylation induced by aggIgG (human platelets [3]; aggIgG stimulation): nearly completely abolished | inhibition of platelet activation by aggIgG (human platelets [2]): inhibit platelet activation

C=C1[C@@H](C)[C@H]2[C@H](Cc3ccccc3)NC(=O)[C@]23[C@H](OC(C)=O)/C=C/[C@@](C)(O)C(=O)[C@@H](C)C/C=C/[C@H]3[C@@H]1O [cytochalasin D]
inhibition of the phagocytic activity of platelets (human platelets [4]): > 90%
